What all share (format): cell-based
Experiment [1] deals with human peripheric T lymphocytes. In words: DNA synthesis of human peripheric T lymphocytes, 3[H]-thymidine incorporation. Particulars: 72 h incubation. How it is done: The T cells were incubated for 72 h in the presence of said inhibitors and subsequently, the DNA synthesis rate was determined via a measurement of the ^3[H]-thymidin incorporation, as was described by Reinhold et al. [D. Reinhold et al,: “Inhibitors of dipeptidyl peptidase IV induce secretion of transforming growth factor β1 in PWM-stimulated PBMNC and T cells”, Immunology 1997, 91, 354-360].
Human peripheric T cells were incubated over 3 days with the concentrations of the inhibitors shown. Subsequently, ^3[H]-methyl thymidine was added to the culture medium, and the amount of ^3[H]-thymidine inserted into the DNA was measured after further 6 hours.
The T cells were incubated for 72 h in the presence of said inhibitors, and the DNA synthesis rate was determined subsequently by the measurement of the ^3[H]-thymidine incorporation, as was described by Reinhold et al. [D. Reinhold et al.: “Inhibitors of dipeptidyl peptidase IV induce secretion of transforming growth factor β1 in PWM-stimulated PBMNC and T cells”, Immunology 1997, 91, 354-360].
FIG. 3 show a the synergistic and dose-dependent effect of inhibitors of DP IV (I49) and of prolyl oligopeptidase (Boc-Ala-Thia) on the DNA synthesis of human peripheric T lymphocytes. Human T cells were incubated for three days with the concentrations of inhibitors mentioned above. Subsequently, ^3[H]-methyl thymidine was added to the culture medium, and the amount of ^3[H]-thymidine incorporated into the DNA was measured after further 6 hours.
Human T cells were incubated for three days with the concentrations of inhibitors mentioned above. Subsequently, ^3[H]-methyl thymidine was added to the culture medium, and the amount of ^3[H]-thymidine incorporated into the DNA was measured after further 6 hours.
In general terms: Incorporation of labelled thymidine or its analogues reports DNA synthesis.

The test system of experiment [2] is human peripheric mononuclear cells (MNZ). In words: DNA synthesis of human peripheric mononuclear cells (MNZ), 3[H]-thymidine incorporation. The note with it: 72 h incubation. The method, then:
The MNZ were incubated for 72 h in the presence of said inhibitors, and the DNA synthesis rate was determined subsequently by the measurement of the ^3[H]-thymidine incorporation, as was described by Reinhold et al. [D. Reinhold et al.: “Inhibitors of dipeptidyl peptidase IV induce secretion of transforming growth factor β1 in PWM-stimulated PBMNC and T cells”, Immunology 1997, 91, 354-360].
Human MNZ were incubated for three days with the concentrations of inhibitors mentioned above. Subsequently, ^3[H]-methyl thymidine was added to the culture medium, and the amount of ^3[H]-thymidine incorporated into the DNA was measured after further 6 hours.
The MNZ were incubated for 72 h in the presence of said inhibitors, and the DNA synthesis rate was determined subsequently by the measurement of the ^3[H]-thymidine incorporation, as was described by Reinhold et al. [D. Reinhold et al.; “Inhibitors of dipeptidyl peptidase IV induce secretion of transforming growth factor β1 in PWM-stimulated PBMNC and T cells”, Immunology 1997, 91, 354-360].

Experiment [3] has as its system PHA-activated human mononuclear cells (MNZ). Kind of experiment: WST-1 cell proliferation assay, PHA-activated human mononuclear cells (MNZ). How it is done: FIG. 7: The MNZ were incubated for a time period of 72 h without addition (control), with an addition of the mitogenic lectin phytohemagglutinin (PHA), and with the addition of PHA and the inhibitors mentioned above, respectively. Subsequently, the number amount of metabolically active cells was determined by using the commercially available WST-1 cell proliferation assay (Takara Inc.) in accordance with the provisions of the manufacturer.
FIG. 10: The mononuclear cells (MNZ) were incubated for a time period of 72 h in the presence of the inhibitors mentioned above single and in combination. Subsequently, the number of metabolically active cells was determined by using the commercially available WST-1 cell proliferation assay (Takara Inc.) in accordance with the provisions of the manufacturer.

For experiment [4], the system named is human T cell line KARPAS-299. In words: WST-1 cell proliferation assay, KARPAS-299 cells. Particulars: single and simultaneous administration of I49 and APN inhibitors Actinonin and Probestin (FIG. 8). How it is done: FIG. 8: The KARPAS-299 cells were incubated without addition (control) and in the presence of single inhibitors mentioned above as well as in the presence of combinations thereof, respectively. Subsequently, the number of metabolically active cells was determined by using the commercially available WST-1 cell proliferation assay (Takara Inc.) in accordance with the provisions of the manufacturer.
On the technique in general: Tetrazolium assays rely on reduction of a dye to a coloured formazan, in cell work by metabolically active cells.

For experiment [5], the system named is activated human peripheric T cells. In words: WST-1 cell proliferation assay, activated human peripheric T cells. The note with it: single or simultaneous administration of I49 and APN inhibitors Actinonin and Probestin; activation by phytohemagglutinine and phorbol-12-myristate-13-acetate; 72 h (FIG. 9). How it is done: FIG. 9: The T cells, with the exception of the untreated control, were activated by an addition of phytohemagglutinine and phorbol-12-myristate-13-acetate to the culture medium and were incubated for a time period of 72 h in the presence of the above-mentioned inhibitors single and in combination. Subsequently, the number of metabolically active cells was determined by using the commercially available WST-1 cell proliferation assay (Takara Inc.) in accordance with the provisions of the manufacturer.

[6] abbreviates: simultaneous administration of DP IV inhibitor I49 and APN inhibitor Actinonin, dose-dependent (FIG. 1).
Setting [7] is: simultaneous administration of DP IV inhibitor I49 and APN inhibitor actinonine, dose-dependent (FIG. 2).
[8] abbreviates: single and simultaneous administration of I49 and Actinonin, PHA, 72 h (FIG. 7).
Setting [9] is: single or simultaneous administration of I49 and APP inhibitor Apstatin, PHA-activated, 72 h (FIG. 10).
Setting [10] is: simultaneous administration of DP IV inhibitor I49 and prolyl oligopeptidase inhibitor Boc-Ala-thiazolidid, dose-dependent (FIG. 3).
[11] abbreviates: simultaneous administration of DP IV inhibitor I49 and prolyl oligopeptidase inhibitor Boc-Ala-Thiazolidid, dose-dependent (FIG. 4).
[12] abbreviates: simultaneous administration of DP IV inhibitor I49 and ACE inhibitor Captopril, dose-dependent (FIG. 5).
[13] abbreviates: simultaneous administration of DP IV inhibitor I49 and ACE inhibitor Captopril, dose-dependent (FIG. 6).

Turning to `CCCCC[C@H](CC(=O)NO)C(=O)N[C@H](C(=O)N1CCC[C@H]1CO)C(C)C` [Actinonin], the “inhibition of DNA synthesis” value in experiment [1] (setting [6]) and in experiment [2] (setting [7]) was “inhibited in a superadditive manner” throughout. In addition, the “inhibition of proliferation (number of metabolically active cells)” value (from here on “inhibition of proliferation”) in experiment [3] (setting [8]), in experiment [4] and in experiment [5] was “Inhibition of the Proliferation” each time.

Consider `C[C@H](NC(=O)[C@@H]1CCCN1C(=O)[C@@H]1CCCN1C(=O)[C@@H](O)[C@H](N)Cc1ccccc1)C(N)=O` [Apstatin], for which, in experiment [3] (setting [9]), the “inhibition of proliferation” value is reported as “Inhibition of the Proliferation”.

For the compound `CC(NC(=O)OC(C)(C)C)C(=O)N1CCSC1` (stereo not drawn) [Boc-Ala-thiazolidid], the “inhibition of DNA synthesis” value in experiment [1] (setting [10]) and in experiment [2] (setting [11]) was “inhibited in a superadditive manner” throughout.

In the case of `C[C@H](CS)C(=O)N1CCC[C@H]1C(=O)O` [Captopril], the “inhibition of DNA synthesis” value in experiment [1] (setting [12]) and in experiment [2] (setting [13]) was “inhibited in a superadditive manner” throughout.

Consider `NC(CCCCNC(=O)OCc1ccc([N+](=O)[O-])cc1)C(=O)N1CCSC1` (stereo not shown) [I49, Lys[Z(NO2)]-thiazolidid], for which the “inhibition of DNA synthesis” value in experiment [1] (setting [12]), in experiment [1] (setting [6]), in experiment [1] (setting [10]), in experiment [2] (setting [13]), in experiment [2] (setting [7]) and in experiment [2] (setting [11]) was “inhibited in a superadditive manner” throughout. In addition, the “inhibition of proliferation” value in experiment [3] (setting [8]), in experiment [3] (setting [9]), in experiment [4] and in experiment [5] was “Inhibition of the Proliferation” each time.

Regarding `CC(C)C[C@H](NC(=O)[C@@H](O)[C@H](N)Cc1ccccc1)C(=O)N1CCC[C@H]1C(=O)N1CCC[C@H]1C(=O)O` [Probestin], the “inhibition of proliferation” value in experiment [4] and in experiment [5] was “Inhibition of the Proliferation” in each case.

The values are drawn from US20050014699A1, “Combinations of enzyme inhibitor-containing preparations and the use thereof” (priority 2000, published 2005).
